From the NIST ThermoML archive (doi:10.1016/j.fluid.2006.10.027)

Assay: xn = mol fraction of the nth substance listed
Conditions: 101 kPa, Liquid, Capillary tube (Ostwald / Ubbelohde) method, x1 = 0.38

CC(C)C(=O)O [2-methylpropanoic acid] + O
Conditions	viscosity [mPa·s]
300.25 K	2.21
300.33 K	2.205
300.36 K	2.204
300.49 K	2.197
300.61 K	2.19
300.66 K	2.187
300.76 K	2.182
300.87 K	2.176
300.96 K	2.171
301.09 K	2.164
301.16 K	2.16
301.26 K	2.154
301.36 K	2.149
301.49 K	2.142
301.56 K	2.138
301.85 K	2.122
302.16 K	2.105
302.46 K	2.088
